Values of other authors, collected in patent publication US8137397B2, “Medical devices” (Boston Scientific Scimed, Inc., priority 2004, dated 2012).

Details: at about room temperature, i.e., about 25° C.; for solubility: in water

SMILES | solubility | solubility in water (in words)
[Cl-].[K+] [Potassium chloride, potassium chloride] | about 0.36 gram/mL of water | –
OC[C@@H](O)[C@@H](O)[C@H](O)[C@H](O)CO [Mannitol, mannitol] | about 0.18 gram/mL of water | –
O=C(CO)[C@H](O)[C@@H](O)[C@H](O)CO [Sorbose, sorbose] | – | freely soluble in water
OC[C@H]1O[C@@](CO)(O[C@H]2O[C@H](CO)[C@@H](O)[C@H](O)[C@H]2O)[C@@H](O)[C@@H]1O [Sucrose, sucrose] | about 2 gram/mL of water | –
